# Read-outs that look alike come from different tables or passages of the source.
# Experiments:
# [1] = system: Saccharomyces Cerevisiae (KCTC 7904); experiment: Bio-germanium content inoculated into the yeast by content of germanium in the solution; assay type: cell-based; conditions: KCTC7904; for Bio-germanium content inoculated into the yeast: 20 hours, pH 10, 40° C.
# [2] = system: yeast GP-01 (KCTC11399BP); experiment: Germanium inoculated into the yeast by pH, temperature and surfactant concentration; assay type: cell-based, Saccharomyces Cerevisiae; conditions: 5,000 ppm germanium, ratio 1:0.5, 20 hours
# Experimental: (§1) In order to determine the content of bio-germanium in the yeast GP-01, 1 g of the cultivated and dried yeast GP-01 was added in 30 ml of nitric acid. The obtained sample was heated to be decomposed. After adjusting pH value to 6, 1 ml of the sample was mixed with 1 ml of phenylfluorone and 1 ml of cyclo nucleic acid. The obtained sample was stationary for 30 hours at 30° C. and then determined the content of germanium in the yeast GP-01 by using UV spectrophotometer at 525 nm.
# The broth containing the ethanol-resistant yeast GP-01 as prepared in the Example 1 was centrifuged to collect the yeast. At the ratio of 1:0.5, the collected yeast was added in the solution of sodium metagermanate (Na2GeO3) having 5,000 ppm of germanium. After adding surfactant (Twin-80), the obtained solution was cultivated for 20 hours by various conditions for pH, temperature or the broth containing germanium.
# The pH was regulated by using 1N NaOH, and a number of tests were repeatedly performed under different temperatures and concentrations of surfactant.
# When measuring the content of germanium, the broth without adding the surfactant was used as a control.
# The measurement of content of bio-germanium in the yeast GP-01 (KCTC11399BP) of the present invention was made by the same method as Example 2.
# [3] = system: yeast GP-01 (KCTC11399BP); experiment: Bio-germanium content inoculated into the yeast by content of germanium in the solution; assay type: cell-based, Saccharomyces Cerevisiae; conditions: for Bio-germanium content inoculated into the yeast: 20 hours, pH 10, 40° C.
# Experimental: The broth medium containing the mutated Saccharomyces Cerevisiae, yeast GP-01 (KCTC11399BP), was centrifuged to collect the palletized yeast. The collected pelletized yeast was added in each of the solutions of sodium metagermanate (Na2GeO3) with different concentrations of germanium. The prepared solutions were cultivated for 20 hours at pH 10 and temperature 40° C.
# as §1, with “nm. […]” for “nm.”
# [4] = Solubility of the germanium source; assay type: physicochemical; conditions: 25° C.
# Experimental: The solution of Sodium Metagermanate (Na2GeO3) was prepared by dissolving sodium carbonate (Na2CO3, Kanto, Japan) in water, adding germanium dioxide (GeO2, PPM GmbH, Germany) at the equivalent ratio of 1:1 against the said sodium carbonate, and sterilized the obtained solution.
# [5] = system: yeast GP-01 (KCTC 11399BP); experiment: Bio-germanium content in yeast by mixing ratio of yeast and Ge solution; assay type: cell-based, Saccharomyces Cerevisiae; conditions: for Bio-germanium content in yeast GP-01: 20 hours, pH 10, 40° C.
# Experimental: as §1
# The broth containing the ethanol-resistant yeast GP-01 as prepared in the Example 1 was centrifuged to collect the yeast. […] The obtained solutions were cultivated for 20 hours at pH 10 and temperature 40° C.
# Also, as a control, the same procedure described in Example 3 was performed, except that a solution of (inorganic) germanium dioxide (GeO2) was used instead of sodium metagermanate (Na2GeO3).
# The contents of germanium in the yeast GP-01 (KCTC 11399BP) was measured by the same method as Example 2.
# [6] = system: yeast GP-01 (KCTC 11399BP)
# Experimental: (§2) In order to examine the ethanol resistance of the obtained yeast GP-01, the ethanol, which is the inhibitor of the growth, was added by the concentrations and the status of the growth of the yeast was checked.
# [7] = system: Saccharomyces Cerevisiae (KCTC 7904); conditions: KCTC7904
# Experimental: as §2
# [8] = 25° C.; cited from earlier work
# [9] = germanium in the solution 3,000 ppm
# [10] = germanium in the solution 4,000 ppm
# [11] = germanium in the solution 5,000 ppm
# [12] = germanium in the solution 10,000 ppm
# [13] = germanium in the solution 15,000 ppm
# [14] = mixing ratio yeast GP-01:Ge solution 1:0.2
# [15] = mixing ratio yeast GP-01:Ge solution 1:0.5
# [16] = mixing ratio yeast GP-01:Ge solution 1:1
# [17] = mixing ratio yeast GP-01:Ge solution 1:2
# [18] = mixing ratio yeast GP-01:Ge solution 1:3
# [19] = germanium in the solution 1,000 ppm
# [20] = germanium in the solution 2,000 ppm
compound,measurement,setting,value
"[Na+].[Na+].[O]=[Ge]([O-])[O-] [Na2GeO3 solution, sodium metagermanate]",Yield (%) of germanium inoculated,[1]; [9],32%
same,Bio-germanium content inoculated into the yeast,[1]; [9],950 ppm
same,Yield (%) of germanium inoculated,[1]; [10],38%
same,Bio-germanium content inoculated into the yeast,[1]; [10],"1,500 ppm"
same,Yield (%) of germanium inoculated,[1]; [11],47%
same,Bio-germanium content inoculated into the yeast,[1]; [11],"2,370 ppm"
same,Yield (%) of germanium inoculated,[1]; [12],45%
same,Bio-germanium content inoculated into the yeast,[1]; [12],"4,500 ppm"
same,Yield (%) of germanium inoculated,[1]; [13],38%
same,Bio-germanium content inoculated into the yeast,[1]; [13],"5,730 ppm"
same,Bio-germanium inoculated,[2]; Control: broth without adding the surfactant,"1,720 ppm"
same,Bio-germanium inoculated,[2]; pH 4.0,"2,190 ppm"
same,Bio-germanium inoculated,[2]; pH 5.0,"3,254 ppm"
same,Bio-germanium inoculated,[2]; pH 6.0,"5,320 ppm"
same,Bio-germanium inoculated,[2]; pH 6.5,"5,790 ppm"
same,Bio-germanium inoculated,[2]; pH 7.0,"9,750 ppm"
same,Bio-germanium inoculated,[2]; pH 8.0,"10,700 ppm"
same,Bio-germanium inoculated,[2]; pH 9.0,"15,200 ppm"
same,Bio-germanium inoculated,[2]; pH 10.0,"16,300 ppm"
same,Bio-germanium inoculated,[2]; pH 11.0,"9,320 ppm"
same,Bio-germanium inoculated,[2]; surfactant Twin-80 0.1 wt %,"8,743 ppm"
same,Bio-germanium inoculated,[2]; surfactant Twin-80 0.2 wt %,"16,250 ppm"
same,Bio-germanium inoculated,[2]; surfactant Twin-80 0.3 wt %,"12,530 ppm"
same,Bio-germanium inoculated,[2]; surfactant Twin-80 0.4 wt %,"9,670 ppm"
same,Bio-germanium inoculated,[2]; surfactant Twin-80 0.5 wt %,"7,624 ppm"
same,Bio-germanium inoculated,[2]; surfactant Twin-80 0.6 wt %,"5,670 ppm"
same,Bio-germanium inoculated,[2]; surfactant Twin-80 0.7 wt %,"4,830 ppm"
same,Bio-germanium inoculated,[2]; surfactant Twin-80 0.8 wt %,"2,700 ppm"
same,Bio-germanium inoculated,[2]; temperature 20 ° C.,"3,102 ppm"
same,Bio-germanium inoculated,[2]; temperature 30 ° C.,"9,648 ppm"
same,Bio-germanium inoculated,[2]; temperature 35 ° C.,"13,250 ppm"
same,Bio-germanium inoculated,[2]; temperature 40 ° C.,"14,700 ppm"
same,Bio-germanium inoculated,[2]; temperature 45 ° C.,"8,350 ppm"
same,Bio-germanium inoculated,[2]; temperature 50 ° C.,"4,564 ppm"
same,Yield (%) of germanium inoculated,[3]; [9],155%
same,Bio-germanium content inoculated into the yeast,[3]; [9],"4,640 ppm"
same,Yield (%) of germanium inoculated,[3]; [10],171%
same,Bio-germanium content inoculated into the yeast,[3]; [10],"6,840 ppm"
same,Yield (%) of germanium inoculated,[3]; [11],194%
same,Bio-germanium content inoculated into the yeast,[3]; [11],"9,700 ppm"
same,Yield (%) of germanium inoculated,[3]; [12],130%
same,Bio-germanium content inoculated into the yeast,[3]; [12],"13,000 ppm"
same,Yield (%) of germanium inoculated,[3]; [13],110%
same,Bio-germanium content inoculated into the yeast,[3]; [13],"16,500 ppm"
same,solubility,[4],500 mg/mL
same,increase of content of bio-germanium versus germanium dioxide,"[5]; Na2GeO3 solution compared with germanium dioxide, Table 3",2-4 times
same,Bio-germanium content in yeast GP-01,[5]; [14],"4,350 ppm"
same,Bio-germanium content in yeast GP-01,[5]; [15],"14,800 ppm"
same,Bio-germanium content in yeast GP-01,[5]; [16],"12,600 ppm"
same,Bio-germanium content in yeast GP-01,[5]; [17],"9,760 ppm"
same,Bio-germanium content in yeast GP-01,[5]; [18],"8,720 ppm"
CCO [ethanol],"Growth status OD(660 nm, 1/20)","[6]; GP-01 1st investigation, ethanol 6.0 % v/v",0.15
same,"Growth status OD(660 nm, 1/20)","[6]; GP-01 1st investigation, ethanol 8.0 % v/v",0.14
same,"Growth status OD(660 nm, 1/20)","[6]; GP-01 1st investigation, ethanol 10.0 % v/v",0.16
same,"Growth status OD(660 nm, 1/20)","[6]; GP-01 1st investigation, ethanol 15.0 % v/v",0.12
same,"Growth status OD(660 nm, 1/20)","[6]; GP-01 2nd investigation, ethanol 6.0 % v/v",0.14
same,"Growth status OD(660 nm, 1/20)","[6]; GP-01 2nd investigation, ethanol 8.0 % v/v",0.20
same,"Growth status OD(660 nm, 1/20)","[6]; GP-01 2nd investigation, ethanol 10.0 % v/v",0.19
same,"Growth status OD(660 nm, 1/20)","[6]; GP-01 2nd investigation, ethanol 15.0 % v/v",0.08
same,"Growth status OD(660 nm, 1/20)","[6]; GP-01 3rd investigation, ethanol 6.0 % v/v",0.20
same,"Growth status OD(660 nm, 1/20)","[6]; GP-01 3rd investigation, ethanol 8.0 % v/v",0.23
same,"Growth status OD(660 nm, 1/20)","[6]; GP-01 3rd investigation, ethanol 10.0 % v/v",0.24
same,"Growth status OD(660 nm, 1/20)","[6]; GP-01 3rd investigation, ethanol 15.0 % v/v",0.15
same,"Growth status OD(660 nm, 1/20)",[7]; ethanol 6.0 % v/v,0.07
same,"Growth status OD(660 nm, 1/20)",[7]; ethanol 8.0 % v/v,0.06
same,"Growth status OD(660 nm, 1/20)",[7]; ethanol 10.0 % v/v,0.05
"germanium dioxide [GeO2 solution, reference compound]",Yield (%) of germanium inoculated,[1]; [19],78%
same,Bio-germanium content inoculated into the yeast,[1]; [19],780 ppm
same,Yield (%) of germanium inoculated,[1]; [20],44%
same,Bio-germanium content inoculated into the yeast,[1]; [20],870 ppm
same,Yield (%) of germanium inoculated,[1]; [9],33%
same,Bio-germanium content inoculated into the yeast,[1]; [9],980 ppm
same,Yield (%) of germanium inoculated,[1]; [10],36%
same,Bio-germanium content inoculated into the yeast,[1]; [10],"1,430 ppm"
same,Yield (%) of germanium inoculated,[1]; [11],30%
same,Bio-germanium content inoculated into the yeast,[1]; [11],"1,500 ppm"
same,Yield (%) of germanium inoculated,[3]; [19],87%
same,Bio-germanium content inoculated into the yeast,[3]; [19],870 ppm
same,Yield (%) of germanium inoculated,[3]; [20],89%
same,Bio-germanium content inoculated into the yeast,[3]; [20],"1,786 ppm"
same,Yield (%) of germanium inoculated,[3]; [9],89%
same,Bio-germanium content inoculated into the yeast,[3]; [9],"2,670 ppm"
same,Yield (%) of germanium inoculated,[3]; [10],96%
same,Bio-germanium content inoculated into the yeast,[3]; [10],"3,850 ppm"
same,Yield (%) of germanium inoculated,[3]; [11],95%
same,Bio-germanium content inoculated into the yeast,[3]; [11],"4,753 ppm"
same,Bio-germanium content in yeast GP-01,[5]; [14],"1,920 ppm"
same,Bio-germanium content in yeast GP-01,[5]; [15],"5,670 ppm"
same,Bio-germanium content in yeast GP-01,[5]; [16],"4,780 ppm"
same,Bio-germanium content in yeast GP-01,[5]; [17],"2,500 ppm"
same,Bio-germanium content in yeast GP-01,[5]; [18],"1,700 ppm"
same,solubility,[8],5.2 mg/mL

# Source: patent US8569039B2, “Ethanol resistance Saccharomyces cerevisiae GP-01 by protoplast fusion, method for manufacturing thereof, method for manufacturing yeast containing high content of bio organic germanium by using Saccharomyces cerevisiae GP-01 and high water soluble sodium metagermanate as a germanium source” (Geranti Pharm Ltd., priority 2008, dated 2013)
